Source: PubChem BioAssay AID248 (DTP/NCI, 2004)
Where “and” joins values, the source holds several entries; their conditions need not be identical. Identical values can stand only once. Toxic doses and inconclusive results are not listed. Rule as the data show it: active = T/C of 150% or more; inactive = T/C below 125%.

Test system: L1210 leukemia ip in BDF1 mice, survival T/C
Assay: NCI In Vivo Anticancer Drug Screen. Data for tumor model L1210 Leukemia (intraperitoneal) in B6D2F1 (BDF1) mice
Conditions: endpoint: mean survival time, higher = longer survival
Outline: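 Transplantable tumor model; survival measured in treated vs vehicle control mice. Value = treated/control.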

[1] = dose: 100.0 mg/kg/injection, schedule: Q01DX001 (ip), vehicle: saline
[2] = dose: 100.0 mg/kg/injection, schedule: Q04DX003 (ip), vehicle: saline
[3] = dose: 200.0 mg/kg/injection, schedule: Q01DX001 (ip), vehicle: saline
[4] = dose: 400.0 mg/kg/injection, schedule: Q01DX001 (ip), vehicle: saline
[5] = dose: 100.0 mg/kg/injection, schedule: Q04DX003 (ip), vehicle: saline with Tween-80
[6] = dose: 200.0 mg/kg/injection, schedule: Q04DX003 (ip), vehicle: saline with Tween-80
[7] = dose: 200.0 mg/kg/injection, schedule: Q04DX003 (ip), vehicle: saline
[8] = dose: 400.0 mg/kg/injection, schedule: Q04DX003 (ip), vehicle: saline

Measured: T/C

NC(N)=N/N=C/c1c[nH]c2ccc(OCc3ccccc3)cc12
inactive: dose: 15.0 mg/kg/injection, schedule: Q01DX Z (ip), vehicle: methylcellulose (MC) 94 % of control | dose: 15.0 mg/kg/injection, schedule: Q01DX Z (oral), vehicle: methylcellulose (MC) 90 % of control | dose: 30.0 mg/kg/injection, schedule: Q01DX Z (ip), vehicle: methylcellulose (MC) 96 % of control | dose: 30.0 mg/kg/injection, schedule: Q01DX Z (oral), vehicle: methylcellulose (MC) 87 % of control

CCCOC(=O)C1OC12CCCCC2 (stereo unspecified)
inactive: dose: 100.0 mg/kg/injection, schedule: Q01DX009 (ip), vehicle: saline with Tween-80 103 % of control | dose: 200.0 mg/kg/injection, schedule: Q01DX009 (ip), vehicle: saline with Tween-80 100 % of control | dose: 400.0 mg/kg/injection, schedule: Q01DX009 (ip), vehicle: saline with Tween-80 103 % of control

CN1CN(C)CN(C)C1
inactive: dose: 25.0 mg/kg/injection, schedule: Q01DX009 (ip), vehicle: saline 105 % of control | dose: 50.0 mg/kg/injection, schedule: Q01DX009 (ip), vehicle: saline 108 % of control | dose: 50.0 mg/kg/injection, schedule: Q04DX003 (ip), vehicle: saline 102 % of control | [1] 101 % of control | dose: 100.0 mg/kg/injection, schedule: Q01DX009 (ip), vehicle: saline 110 % of control | [2] 102 % of control and 107 % of control | [3] 92 % of control | [4] 97 % of control

Nc1cc[c]([Hg][Cl])cc1
inactive: dose: 1.0 mg/kg/injection, schedule: Q01DX009 (ip), vehicle: Klucel (hydroxypropylcellulose) (HPC) 97 % of control | dose: 1.0 mg/kg/injection, schedule: Q04DX003 (ip), vehicle: saline 102 % of control | dose: 3.0 mg/kg/injection, schedule: Q01DX009 (ip), vehicle: Klucel (hydroxypropylcellulose) (HPC) 112 % of control | dose: 3.0 mg/kg/injection, schedule: Q04DX003 (ip), vehicle: saline 96 % of control | dose: 6.0 mg/kg/injection, schedule: Q01DX009 (ip), vehicle: Klucel (hydroxypropylcellulose) (HPC) 88 % of control | dose: 6.0 mg/kg/injection, schedule: Q04DX003 (ip), vehicle: saline 95 % of control

CCOC(=O)CCc1ccc(N=NN(C)C(C)CC)cc1 (stereo unspecified)
inactive: dose: 100.0 mg/kg/injection, schedule: Q01DX001 (ip), vehicle: carboxymethylcellulose (CMC) 111 % of control | dose: 200.0 mg/kg/injection, schedule: Q01DX001 (ip), vehicle: carboxymethylcellulose (CMC) 105 % of control | dose: 400.0 mg/kg/injection, schedule: Q01DX001 (ip), vehicle: carboxymethylcellulose (CMC) 111 % of control

c1cc(Sc2ccc(OCC3CO3)cc2)ccc1OCC1CO1 (stereo unspecified)
inactive: dose: 100.0 mg/kg/injection, schedule: Q01DX001 (ip), vehicle: other 94 % of control | dose: 200.0 mg/kg/injection, schedule: Q01DX001 (ip), vehicle: other 97 % of control | dose: 400.0 mg/kg/injection, schedule: Q01DX001 (ip), vehicle: other 92 % of control

COc1ccc(CNc2ncccn2)cc1
inactive: dose: 100.0 mg/kg/injection, schedule: Q04DX003 (ip), vehicle: Klucel (hydroxypropylcellulose) (HPC) 102 % of control | dose: 200.0 mg/kg/injection, schedule: Q04DX003 (ip), vehicle: Klucel (hydroxypropylcellulose) (HPC) 102 % of control | dose: 400.0 mg/kg/injection, schedule: Q04DX003 (ip), vehicle: Klucel (hydroxypropylcellulose) (HPC) 107 % of control

O=C1c2cscc2C(O)c2c(Cl)sc(Cl)c21 (stereo unspecified)
inactive: dose: 100.0 mg/kg/injection, schedule: Q04DX002 (ip), vehicle: saline with Tween-80 101 % of control | dose: 200.0 mg/kg/injection, schedule: Q04DX002 (ip), vehicle: saline with Tween-80 97 % of control | dose: 400.0 mg/kg/injection, schedule: Q04DX002 (ip), vehicle: saline with Tween-80 89 % of control

CC(Cc1ccccc1)Cc1ccccc1
inactive: [5] 96 % of control | [6] 88 % of control | dose: 400.0 mg/kg/injection, schedule: Q04DX003 (ip), vehicle: saline with Tween-80 98 % of control

O=C(Nc1ccccc1)Nc1ncn[nH]1
inactive: dose: 75.0 mg/kg/injection, schedule: Q01DX001 (ip), vehicle: carboxymethylcellulose (CMC) 97 % of control | dose: 150.0 mg/kg/injection, schedule: Q01DX001 (ip), vehicle: carboxymethylcellulose (CMC) 92 % of control | dose: 300.0 mg/kg/injection, schedule: Q01DX001 (ip), vehicle: carboxymethylcellulose (CMC) 90 % of control

O=C(O)c1ccc(OCCCOc2ccccc2)c(Cl)c1
inactive: [5] 96 % of control | [6] 93 % of control

COc1ccc(/C=N\NC(=O)CCCCC(=O)N/N=C\c2ccc(OC)cc2)cc1
inactive: dose: 100.0 mg/kg/injection, schedule: Q01DX001 (ip), vehicle: Klucel (hydroxypropylcellulose) (HPC) 106 % of control | dose: 200.0 mg/kg/injection, schedule: Q01DX001 (ip), vehicle: Klucel (hydroxypropylcellulose) (HPC) 98 % of control | dose: 400.0 mg/kg/injection, schedule: Q01DX001 (ip), vehicle: Klucel (hydroxypropylcellulose) (HPC) 91 % of control

O=[N+]([O-])c1cc(Cl)c(Cl)cc1NCCCO
inactive: [1] 95 % of control | dose: 100.0 mg/kg/injection, schedule: Q01DX009 (ip), vehicle: acetone 95 % of control | [2] 91 % of control | [3] 96 % of control | dose: 200.0 mg/kg/injection, schedule: Q01DX009 (ip), vehicle: acetone 97 % of control | [7] 96 % of control | [4] 92 % of control | [8] 89 % of control

Nc1ccccc1SC1CC(=O)N(c2ccc(Oc3ccc(Cl)cc3)cc2)C1=O (stereo unspecified)
inactive: dose: 75.0 mg/kg/injection, schedule: Q01DX009 (ip), vehicle: Klucel (hydroxypropylcellulose) (HPC) 87 % of control | dose: 150.0 mg/kg/injection, schedule: Q01DX009 (ip), vehicle: Klucel (hydroxypropylcellulose) (HPC) 98 % of control | dose: 300.0 mg/kg/injection, schedule: Q01DX009 (ip), vehicle: Klucel (hydroxypropylcellulose) (HPC) 92 % of control

COc1cc(OC)c(Cl)c(OC)c1
inactive: dose: 100.0 mg/kg/injection, schedule: Q01DX009 (ip), vehicle: other 120 % of control | [2] 101 % of control | dose: 200.0 mg/kg/injection, schedule: Q01DX009 (ip), vehicle: other 103 % of control | [7] 100 % of control | dose: 400.0 mg/kg/injection, schedule: Q01DX009 (ip), vehicle: other 108 % of control | [8] 101 % of control
